Data set [1] concerns Raf-Mek-Erk cascade (GST-c-Raf-DD, GST-Mek1, His-Erk2). Briefly: Raf-Mek-Erk ELISA (cell-free reconstituted cascade, Erk phosphorylation). To be noted: inhibition of Erk phosphorylation, 1 mM ATP, 10 concentrations 31.6 pM-100 μM. Format: biochemical, human. The protocol: The inhibitory effect on the following human serine/threonine and tyrosine kinases of the compounds of the invention was tested in conventional kinase assays: PKB/Akt1, c-Raf, B-Raf, Mek, PDGFRbeta, Flt-3, c-Kit, c-Ab1, KDR, FGFR1 and IGF1R. Both the full-length kinases and truncated fragments—but at least the cytoplasmic, constitutively active kinase domains—were employed. The kinases were prepared as recombinant fusion proteins with GST (glutathion S-transferase) or HIS Tag in Sf9 cell culture. Depending on the substrate type, the various kinase reactions were carried out in sandwich ELISA formates or by means of a simple substrate adsorption assay on 96-well Flashplates (Perkin Elmer).
The testing on substances on the Raf-Mek-Erk cascade is described in detail below. Selected test results for the Raf and Mek inhibitors are then listed.
Procedure: Raf-Mek-Erk ELISA
Potential inhibitors were firstly investigated at a concentration of 20 μg/ml in initial single-dose determinations on 96-well microtiter plates (MTPs). Substances with >70% inhibition were employed for dose-response studies.
Reconstitution of the Raf-Mek-Erk cascade was quantified with the aid of a cell-free ELISA.
A typical kinase assay was carried out in a final volume of 50 μl with in each case 20-150 ng of Raf, Mek, Erk kinase protein, 1 mM ATP, 10 mM MgCl2, 150 mM NaCl, 25 mM beta-glycerophosphate, 25 mM Hepes pH 7.5. Before the kinase reaction, the test substances were each preincubated singly with each of the three kinase proteins at room temperature for 30 minutes. For the kinase reaction, the kinases preincubated with test substance were combined and incubated at 26° C. for 30 minutes. The reaction was stopped by a final concentration of 2% SDS and 10 minutes at 50° C. in a heating block.
For the immunodetection, the reaction mixtures were transferred to 96-well MTPs coated with anti-Erk Ab(K-23, Santa Cruz Biotechnology, incubated at room temperature for 60 minutes and washed 3× with TBST. Anti-phospho-Erk Ab (#9106, New England Biolabs) 1:500 in 50 μl of TBST/1% BSA, was added and incubated at 4° C. overnight. After the MTPs had been washed 3× with TBST, secondary anti-mouse IgG^POD conjugate (#NA931, Pharmacia) 1:2500 was added, incubated at room temperature for 1 h and again washed 3× with TBST. For colorimetric detection of the kinase reaction, 50 μl of OPD (o-phenyldiamine dihydrochloride) chromogen buffer were pipetted into each of the wells and incubated at 37° C. for 30 minutes. The colour reaction was then determined in an ELISA reader at 492 nm.
The experimental determination of dose-response plots took place using the same experimental design with 10 semilogarithmically graded concentrations from 31.6 pM-100 μM. The IC50 values were calculated in GraphPadPrism.

Experimental findings from patent US7323468B2, “Pyridopyrazines and the use thereof as kinase inhibitors” (AEterna Zentaris GmbH, priority 2003, dated 2008) are described below.

pIC50: −log10 of the molar value.

Regarding `C=C(C)CNC(=S)Nc1ccc2ncc(-c3ccc4ccccc4c3)nc2n1` [Example 6, 1-(2-Methylallyl)-3-(3-naphthalen-2-ylpyrido[2,3-b]pyrazin-6-yl)thiourea], the melting point is 239 to 240 °C (dec.). `O=[N+]([O-])c1ccc(NC(=S)Nc2ccc3ncc(-c4ccc5ccccc5c4)nc3n2)cc1` [Example 8, 1-(3-Naphthalen-2-ylpyrido[2,3-b]pyrazin-6-yl)-3-(4-nitrophenyl)thiourea] had a pIC50 in data set [1] of less than 4.00. As to `COc1ccc(-c2cnc3ccc(NC(=S)Nc4ccc([N+](=O)[O-])cc4)nc3n2)cc1` [Example 9, 1-[3-(4-Methoxyphenyl)pyrido[2,3-b]pyrazin-6-yl]-3-(4-nitrophenyl)thiourea], the pIC50 in data set [1] is less than 4.00. In data set [1], `CC(C)(C)NC(=S)Nc1ccc2ncc(-c3ccccc3)nc2n1` [Example 10, 1-tert-Butyl-3-(3-phenylpyrido[2,3-b]pyrazin-6-yl)thiourea] showed a negative logarithm of the IC50 (pIC50) of less than 4.00.

`S=C(NCc1ccccc1)Nc1ccc2ncc(-c3ccccc3)nc2n1` [Example 13, 1-Benzyl-3-(3-phenylpyrido[2,3-b]pyrazin-6-yl)thiourea] gave a pIC50 in data set [1] of less than 4.00. `Cc1ccc(NC(=O)Nc2ccc3ncc(-c4ccccc4)nc3n2)cc1` [Example 15, 1-(3-Phenylpyrido[2,3-b]pyrazin-6-yl)-3-p-tolylurea] gave a pIC50 in data set [1] of less than 4.00.

`O=C(Nc1ccc(Cl)c(C(F)(F)F)c1)Nc1ccc2ncc(-c3ccccc3)nc2n1` [Example 16, 1-(4-Chloro-3-trifluoromethylphenyl)-3-(3-phenylpyrido[2,3-b]pyrazin-6-yl)urea] had a pIC50 in data set [1] of less than 4.00.
